Experimental data reported in patent US7825146B2, “Sulfonamide derivative having isoxazole ring” (Shionogi & Co., Ltd., priority 2003, dated 2010).

Tests used:
[1] = biological target: T1, MMP-12 (Homo sapiens, UniProt P39900); experiment: Assay for inhibitory activities on MMPs (fluorogenic MOCAc peptide substrate): MMP-12; type: biochemical; settings: catalytic domain 100Phe-263Gly
T1 construct: In regard to MMP-12, catalytic domain(^100Phe˜^263Gly) was amplified with RT-PCR; His-tag; enterokinase digestion-site; made in house
T1 sequence (P39900 100-263): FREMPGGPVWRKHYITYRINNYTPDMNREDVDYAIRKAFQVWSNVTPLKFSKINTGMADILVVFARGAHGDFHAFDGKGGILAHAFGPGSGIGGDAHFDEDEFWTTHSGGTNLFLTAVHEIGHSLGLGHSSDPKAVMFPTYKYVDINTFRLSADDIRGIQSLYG
Procedure: (§1) In regard to MMP-12, catalytic domain(^100Phe˜^263Gly) was amplified with RT-PCR from Human Placenta Total RNA. This was cloned in Escherichia. coli expression vector pTrc99AHE inserted with His-tag sequence and enterokinase digestion-site, induced and expressed by IPTG (Isopropyl-β-D-thiogalactopyranoside) and expressed in a insoluble fraction. Isolation of MMP-12 from an insoluble fraction was carried out by dissolving in modifier (6M urea) by a usual method and purification with metal chelate chromatography (Ni Chelateing Sepharose). And then removing modifier (6M urea) with dialysis and refolding of the enzyme spontaneously gave activated MMP-12.
(§2) The enzymatic activity on MMPs was analyzed by the method described in “C. Graham Knight, Frances Willenbrock and Gillian Murphy: A novel coumarin-labelled peptide for sensitive continuous assays of the matrix metalloproteinases: FEBS LETT., 296, (1992), 263-266”. The substrate: MOCAc-Pro-Leu-Gly-Leu-A2Pr(DNP)-Ala-Arg-NH2 was purchased from Peptide Institute, Inc., Osaka, Japan. The measurement of the inhibitory activities (IC50) was carried out by the following four methods; • (A) Reaction with substrate, enzyme (MMPs) and inhibitor • (B) Reaction with substrate and inhibitor, without enzyme • (C) Reaction with substrate and enzyme (MMPs), without inhibitor • (D) Reaction with substrate only IC50 values were calculated by using the following formula and each fluorescence values of above four methods (A to D).
(§3) The value of inhibitory activity against MMP-2, MMP-8, MMP-9, MMP-12, and MMP-13 measured by above mentioned methods are shown in Table 36, 37, 38, 39, and 40 respectively.

[2] = biological target: T2, MMP-2 (Homo sapiens, UniProt P08253); experiment: Assay for inhibitory activities on MMPs (fluorogenic MOCAc peptide substrate): MMP-2; type: biochemical; settings: MMP-2 purchased from Calbiochem-Novabiochem
T2 construct: purchased Calbiochem-Novabiochem International, Inc
T2 sequence (P08253 110-660): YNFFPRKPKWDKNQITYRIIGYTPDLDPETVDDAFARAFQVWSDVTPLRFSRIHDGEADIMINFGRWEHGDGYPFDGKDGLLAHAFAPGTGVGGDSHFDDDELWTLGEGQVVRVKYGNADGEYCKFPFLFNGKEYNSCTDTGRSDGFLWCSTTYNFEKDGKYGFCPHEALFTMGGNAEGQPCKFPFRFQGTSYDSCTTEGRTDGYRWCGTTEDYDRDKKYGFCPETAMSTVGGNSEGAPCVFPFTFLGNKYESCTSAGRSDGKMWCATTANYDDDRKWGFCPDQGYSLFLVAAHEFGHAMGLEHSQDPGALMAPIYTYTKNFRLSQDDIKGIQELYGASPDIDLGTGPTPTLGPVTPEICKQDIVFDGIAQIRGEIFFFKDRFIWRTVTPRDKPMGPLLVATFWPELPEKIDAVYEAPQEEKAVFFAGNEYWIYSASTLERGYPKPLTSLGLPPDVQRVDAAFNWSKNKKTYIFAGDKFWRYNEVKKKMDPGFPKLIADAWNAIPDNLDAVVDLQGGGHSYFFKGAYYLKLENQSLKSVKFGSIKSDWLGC
Procedure: MMP-2 was purchased from Calbiochem-Novabiochem International, Inc.
as §2, §3

[3] = biological target: T3, MMP-13 (Homo sapiens, UniProt P45452); experiment: Assay for inhibitory activities on MMPs (fluorogenic MOCAc peptide substrate): MMP-13; type: biochemical; settings: Table 40
T3 construct: catalytic domain (^104Tyr˜^267Gly) was amplified with RT-PCR; His-tag; enterokinase digestion-site; made in house
Procedure: as §1, with “MMP-13, mRNA was prepared from carcinoma cell SW1353 derived from human cartilage stimulate by IL-1, TNF and” for “MMP-12,”, “domain (^104Tyr˜^267Gly)” for “domain(^100Phe˜^263Gly)”, “RT-PCR.” for “RT-PCR from Human Placenta Total RNA.”, “MMP-13” for “MMP-12”, “dialyze” for “dialysis”, “MMP-13.” for “MMP-12.”
as §2, §3

[4] = biological target: T4, MMP-8 (Homo sapiens, UniProt P22894); experiment: Assay for inhibitory activities on MMPs (fluorogenic MOCAc peptide substrate): MMP-8; type: biochemical; settings: catalytic domain 99Phe-262Gly
T4 construct: In regard to MMP-8, catalytic domain (^99Phe˜^262Gly) was amplified with PCR; His-tag; enterokinase digestion-site; made in house
T4 sequence (P22894 99-262): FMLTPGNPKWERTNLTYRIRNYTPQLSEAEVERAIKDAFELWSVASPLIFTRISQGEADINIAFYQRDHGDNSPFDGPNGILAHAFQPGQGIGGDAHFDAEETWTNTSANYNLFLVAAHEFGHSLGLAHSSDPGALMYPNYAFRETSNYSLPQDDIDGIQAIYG
Source text: In regard to MMP-8, catalytic domain (^99Phe˜^262Gly) was amplified with PCR using commercial available Human Bone Marrow cDNA. This was cloned in Escherichia. coli expression vector pTrc99AHE inserted with His-tag sequence and enterokinase digestion-site, induced and expressed by IPTG (Isdpropyl-β-D-thiogalactopyranoside) and expressed in a insoluble fraction (Thau F. Ho, M. Walid Qoronfleh, Robert C. Wahl, Trica A. Pulvino, Karen J. Vavra, Joe Falvo, Tracey M. Banks, Patricia G. Brake and Richard B. Ciccarelli: Gene expression, purification and characterization of recombinant human neutrophil collagenase. Gene 146, (1994) 297-301, Prepared by the a improved method of this material). Isolation of MMP-8 from an insoluble fraction was carried out by dissolving in modifier (6M urea) by a usual method and purification with metal chelate chromatography. And then removing modifier (6M urea) with dialysis and refolding of the enzyme spontaneously gave activated MMP-8.
as §2, §3

[5] = biological target: T5, MMP-9 (Homo sapiens, UniProt P14780); experiment: Assay for inhibitory activities on MMPs (fluorogenic MOCAc peptide substrate): MMP-9; type: biochemical; settings: from HT1080 cells, activated by TPCK-Trypsin
T5 construct: made in house; host or cells: endogenous secretion from human fibrosarcoma HT1080 cells (TPA-stimulated), purified from conditioned medium
T5 sequence (P14780 107-707 limits assumed): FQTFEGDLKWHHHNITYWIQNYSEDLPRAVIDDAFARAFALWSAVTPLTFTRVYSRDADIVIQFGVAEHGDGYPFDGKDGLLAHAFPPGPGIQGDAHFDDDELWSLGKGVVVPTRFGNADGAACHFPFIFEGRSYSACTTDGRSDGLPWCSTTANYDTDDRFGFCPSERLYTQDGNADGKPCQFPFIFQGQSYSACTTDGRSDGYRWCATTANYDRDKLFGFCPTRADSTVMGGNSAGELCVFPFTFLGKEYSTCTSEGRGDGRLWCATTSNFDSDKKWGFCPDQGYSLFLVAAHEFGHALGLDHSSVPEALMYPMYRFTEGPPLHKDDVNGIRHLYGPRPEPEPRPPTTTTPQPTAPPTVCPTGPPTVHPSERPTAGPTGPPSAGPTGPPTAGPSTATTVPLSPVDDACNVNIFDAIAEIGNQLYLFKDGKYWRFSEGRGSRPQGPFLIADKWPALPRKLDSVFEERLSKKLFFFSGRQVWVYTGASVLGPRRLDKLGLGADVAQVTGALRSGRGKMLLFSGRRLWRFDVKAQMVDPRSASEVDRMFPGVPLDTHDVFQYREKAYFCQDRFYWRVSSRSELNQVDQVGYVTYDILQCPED
Source text: MMP-9 was isolated and purified by procedures described in as follows: Yasunori Okada, Yukio Gonoji, Katsumi Naka, Katsuro Tomita, Isao Nakanishi, Kazushi Iwata, Kyoko Yamashita, and Taro Hayakawa: Matrix metalloproteinase 9 (92-kDa gelatinase/type IV collagenase) from HT1080 human fibrosarcoma cells. Purification and activation of the precursor and enzymic properties J. Biol. Chem., 1992, 267 21712-21719, in combination with others: 1) Yasunori Okada, Tatsuhisa Morodomi, Jan J, Enghild, ko Suzuki, Atsushi Yasui, Isao Nakanishi, Guy Salvesen and Hideaki Nagase: Matrix metalloproteinase 2 from human rheumatoid synovial fibroblasts. Purification and activation of the precursor and enzymic properties. Eur. J. Biochem. 1990, 194 721-730; 2) Robin V Ward, Rosalind M Hembry; John J Reynolds and Gillian Murphy: The purification of tissue inhibitor of metalloproteinase-2 from its 72 kDa progelatinase complex. Biochem. J. 1991 278 179-187. In detail, human fibrosarcoma ATCC HT1080 cell line was cultured to confluent in Dulbecco's Modified Medium (DMEM) containing 10% fetal-calf serum at 37° C. for 48 hours. Subsequently, the medium of confluent culture was changed to serum-free DMEM medium. To obtain MMP-9, Phorbol-12-myristate-13-acetate (TPA) must be added to this serum-free DMEM medium at a concentration of 50 ng/ml. The TPA treated medium was centrifuged at 3000 rpm for 15 min and the supernatant was concentrated to 450 ml by a Toyo-Roshi UP-20 apparatus with an ultrafiltration membrane. Then, proMMP-9 in this concentrated solution was purified by using columns of Gelatin-Sepharose and Concanavalin A-Sepharose. The pool containing proMMP-9 was dialyzed, concentrated (Toyo-Roshi UP-20) and applied to columns of Sephacryl S-200 and Green A matrix for the separation from TIMPs. The obtained proMMP-9 fraction was activated by TPCK-Trypsin (Final conc. 3 μg/50 μl React Mix.).
as §2, §3

| SMILES | IC50 [1] [µM] | IC50 [2] [nM] | IC50 [3] [µM] | IC50 [4] [µM] | IC50 [5] [µM] | melting point [°C] |
| --- | --- | --- | --- | --- | --- | --- |
| CSc1ccc(-c2cc(-c3ccc(S(=O)(=O)N[C@H](C)C(=O)O)cc3)no2)cc1 [Example C-4] | 0.000377 | 0.0934 | 0.000404 | – | – | – |
| Cc1ccc(-c2cc(-c3ccc(S(=O)(=O)N[C@@H](C(=O)O)C(C)C)cc3)on2)s1 [Example A-33] | – | 0.0971 | – | 0.00291 | – | – |
| CC(C)[C@@H](NS(=O)(=O)c1ccc(-c2cc(-c3ccc(SC(F)(F)F)cc3)no2)cc1)C(=O)O [Example A-32] | 0.000463 | – | 0.000193 | – | 0.000609 | – |
| CC(C)[C@@H](NS(=O)(=O)c1ccc(-c2cc(-c3ccc(OC(F)(F)F)cc3)on2)cc1)C(=O)O [Example C-25] | 0.000196 | – | 0.000223 | – | 0.00032 | – |
| Cc1ccc(-c2cc(-c3ccc(S(=O)(=O)N[C@H](C)C(=O)O)cc3)no2)cc1 [Example C-1] | 0.000707 | – | – | – | – | 218 to 221 |
| Cc1ccc(-c2cc(-c3ccc(S(=O)(=O)N[C@@H](C(=O)O)C(C)C)cc3)no2)s1 [Example C-29] | 0.000368 | 0.0449 | 0.000701 | 0.000567 | 0.00034 | – |
| CCCc1ccc(-c2cc(-c3ccc(S(=O)(=O)N[C@@H](C(=O)O)C(C)C)cc3)no2)cc1 [Example C-14] | 0.000216 | 0.0533 | 0.00015 | – | – | – |
| CC(C)[C@@H](NS(=O)(=O)c1ccc(-c2cc(-c3ccc(OC(F)(F)F)cc3)no2)cc1)C(=O)O [Example A-18] | 0.000376 | 0.0674 | 0.000263 | – | 0.00052 | – |
| Cc1ccc(-c2cc(-c3ccc(S(=O)(=O)N[C@H](Cc4ccccc4)C(=O)O)cc3)no2)s1 [Example C-124] | – | 0.0926 | 0.000528 | 0.00178 | 0.000585 | – |

Other lines, results leading:

| IC50 [1] [µM] | IC50 [2] [nM] | IC50 [3] [µM] | IC50 [4] [µM] | IC50 [5] [µM] | melting point [°C] | SMILES |
| --- | --- | --- | --- | --- | --- | --- |
| 0.000201 | 0.0619 | 0.000282 | 0.0039 | – | – | CSc1ccc(-c2cc(-c3ccc(S(=O)(=O)N[C@@H](C(=O)O)C(C)C)cc3)no2)cc1 [Example C-10] |
| 0.000366 | – | – | – | 0.00092 | – | CC(C)[C@@H](NS(=O)(=O)c1ccc(-c2cc(-c3ccc(Cl)cc3)on2)cc1)C(=O)O [Example C-20] |
| 0.000535 | – | – | 0.000781 | 0.000467 | – | CC(C)[C@@H](NS(=O)(=O)c1ccc(-c2cc(-c3ccc(Cl)s3)on2)cc1)C(=O)O [Example C-33] |
| 0.00015 | 0.049 | 0.000136 | – | – | – | CC(C)c1ccc(-c2cc(-c3ccc(S(=O)(=O)N[C@@H](C(=O)O)C(C)C)cc3)no2)cc1 [Example C-15] |
| 0.000687 | 0.0767 | 0.000328 | – | – | – | CC(C)c1ccc(-c2cc(-c3ccc(S(=O)(=O)N[C@@H](C(=O)O)C(C)C)cc3)on2)cc1 [Example A-16] |
| 0.000245 | – | – | – | 0.000741 | – | CC(C)[C@@H](NS(=O)(=O)c1ccc(-c2cc(-c3ccc(Cl)c(F)c3)on2)cc1)C(=O)O [Example C-36] |
| 0.000316 | 0.0832 | 0.000266 | – | 0.000532 | – | CCc1ccc(-c2cc(-c3ccc(S(=O)(=O)N[C@@H](C(=O)O)C(C)C)cc3)no2)cc1 [Example C-12] |
| 0.000275 | – | – | – | 0.000706 | – | CC(C)[C@@H](NS(=O)(=O)c1ccc(-c2cc(-c3ccc(Br)cc3)on2)cc1)C(=O)O [Example C-22] |
